Data from patent US8765748B2, “Indazolyl, benzimidazolyl, benzotriazolyl substituted indolinone derivatives as kinase inhibitors useful in the treatment of cancer” (University Health Network, priority 2007, dated 2014).

How the values were obtained:
Type in all cases: biochemical
human PLK4 = molecular target: T1, human PLK4 (Homo sapiens, UniProt O00444); assay: PLK4 Inhibition Assay (indirect ELISA); details: 15 μM ATP, 4 nM GST-PLK4; read-out: PLK4 IC50 Ranges
T1 construct: amino terminal GST fusion of residues 1-391 of human PLK4; made in house; host or cells: E. coli
T1 sequence (O00444 1-391): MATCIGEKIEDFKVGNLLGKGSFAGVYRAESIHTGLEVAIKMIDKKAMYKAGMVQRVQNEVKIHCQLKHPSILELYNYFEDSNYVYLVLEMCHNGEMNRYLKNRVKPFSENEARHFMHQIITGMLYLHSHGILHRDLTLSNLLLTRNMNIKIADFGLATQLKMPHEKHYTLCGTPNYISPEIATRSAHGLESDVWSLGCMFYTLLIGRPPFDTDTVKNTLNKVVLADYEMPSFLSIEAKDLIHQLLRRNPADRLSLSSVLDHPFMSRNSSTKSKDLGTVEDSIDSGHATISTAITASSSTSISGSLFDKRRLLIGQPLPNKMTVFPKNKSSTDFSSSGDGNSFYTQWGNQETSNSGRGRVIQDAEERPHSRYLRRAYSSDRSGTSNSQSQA
In short: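 Dephosphorylated (lambda phosphatase) GST-PLK4 activity read by indirect ELISA. Compounds were pre-incubated with enzyme for 15 minutes before ATP was added. IC50 came from a non-linear 4-point logistic fit.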

PLK1 = molecular target: T2, PLK1 (Homo sapiens, UniProt P53350); assay: PLK1 Inhibition Assay (Z-Lyte); details: for IC50: 25 μM ATP, 8 nM PLK1, read-out: PLK1 IC50 Ranges; for inhibition at 10 µM: 10 μM compound, read-out: PLK1 relative inhibition percentage at a dose of 10 μM
T2 construct: purchased Invitrogen PV3501
T2 sequence (P53350 whole entry): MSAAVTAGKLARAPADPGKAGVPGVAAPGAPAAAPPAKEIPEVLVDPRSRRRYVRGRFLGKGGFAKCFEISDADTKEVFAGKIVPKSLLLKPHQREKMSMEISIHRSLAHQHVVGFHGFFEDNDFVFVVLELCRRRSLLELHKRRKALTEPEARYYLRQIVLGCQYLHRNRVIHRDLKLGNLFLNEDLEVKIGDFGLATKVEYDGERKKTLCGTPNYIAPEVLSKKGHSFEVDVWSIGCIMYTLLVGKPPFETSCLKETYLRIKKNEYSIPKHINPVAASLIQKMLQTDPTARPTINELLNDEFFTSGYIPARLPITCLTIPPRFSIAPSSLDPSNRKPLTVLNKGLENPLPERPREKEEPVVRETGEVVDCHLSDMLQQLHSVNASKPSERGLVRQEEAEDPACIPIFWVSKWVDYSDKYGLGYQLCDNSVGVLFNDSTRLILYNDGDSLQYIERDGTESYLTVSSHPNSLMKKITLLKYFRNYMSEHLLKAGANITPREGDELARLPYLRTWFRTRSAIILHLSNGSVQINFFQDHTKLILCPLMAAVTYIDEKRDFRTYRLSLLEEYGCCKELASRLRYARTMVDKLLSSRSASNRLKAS
Method: PLK1 inhibition was determined using the Z-Lyte assay kit from Invitrogen (cat #PV3802). […] The % inhibition values were determined according to the manufacturer's directions and IC50 values were obtained using a non-linear 4 point logistic curve fit (XLfit4, IDBS)

PLK2 = molecular target: T3, PLK2 (Homo sapiens, UniProt Q9NYY3); assay: PLK2 Inhibition Assay (Z-Lyte); details: for inhibition at 10 µM: 10 μM compound, read-out: PLK2 relative inhibition percentage at a dose of 10 μM; for IC50: 60 μM ATP, 133 nM PLK2, read-out: PLK2 IC50 Ranges
T3 construct: purchased Invitrogen PV4204
T3 sequence (Q9NYY3 whole entry): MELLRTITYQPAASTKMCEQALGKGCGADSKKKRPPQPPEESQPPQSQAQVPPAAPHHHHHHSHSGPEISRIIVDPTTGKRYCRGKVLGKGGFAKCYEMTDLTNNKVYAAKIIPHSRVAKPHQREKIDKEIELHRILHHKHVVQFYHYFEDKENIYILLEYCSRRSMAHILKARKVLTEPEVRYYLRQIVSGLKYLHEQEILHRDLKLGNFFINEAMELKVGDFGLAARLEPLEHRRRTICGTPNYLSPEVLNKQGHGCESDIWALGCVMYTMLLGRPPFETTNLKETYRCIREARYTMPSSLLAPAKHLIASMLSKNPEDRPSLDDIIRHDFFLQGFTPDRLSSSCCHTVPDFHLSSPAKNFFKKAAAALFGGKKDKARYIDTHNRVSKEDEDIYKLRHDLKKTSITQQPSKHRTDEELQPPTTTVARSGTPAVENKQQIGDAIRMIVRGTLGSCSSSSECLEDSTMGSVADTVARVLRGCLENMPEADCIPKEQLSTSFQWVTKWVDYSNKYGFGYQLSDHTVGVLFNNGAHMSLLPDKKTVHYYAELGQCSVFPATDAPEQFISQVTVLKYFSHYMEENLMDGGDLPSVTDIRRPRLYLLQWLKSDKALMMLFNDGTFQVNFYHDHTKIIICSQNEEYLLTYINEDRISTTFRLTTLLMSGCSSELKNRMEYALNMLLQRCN
Method: (§1) PLK2 inhibition was determined using the Z-Lyte assay kit from Invitrogen (cat #PV3802). The assay was performed using the recommended manufacturer's instructions with 60 μM ATP and 133 nM PLK2 (Invitrogen cat #PV4204). The % inhibition values were determined according to the manufacturer's directions and IC50 values were obtained using a non-linear 4 point logistic curve fit (XLfit4, IDBS)

Aurora A = molecular target: T4, Aurora A (Homo sapiens, UniProt O14965); assay: Aurora A Inhibition Assay (Z-Lyte); details: for inhibition at 10 µM: 10 μM compound, read-out: Aurora A relative inhibition percentage at a dose of 10 μM; for IC50: 20 μM ATP, 12 nM Aurora A, read-out: Aurora A IC50 Ranges
T4 construct: purchased Invitrogen PV3612
T4 sequence (O14965 1-403): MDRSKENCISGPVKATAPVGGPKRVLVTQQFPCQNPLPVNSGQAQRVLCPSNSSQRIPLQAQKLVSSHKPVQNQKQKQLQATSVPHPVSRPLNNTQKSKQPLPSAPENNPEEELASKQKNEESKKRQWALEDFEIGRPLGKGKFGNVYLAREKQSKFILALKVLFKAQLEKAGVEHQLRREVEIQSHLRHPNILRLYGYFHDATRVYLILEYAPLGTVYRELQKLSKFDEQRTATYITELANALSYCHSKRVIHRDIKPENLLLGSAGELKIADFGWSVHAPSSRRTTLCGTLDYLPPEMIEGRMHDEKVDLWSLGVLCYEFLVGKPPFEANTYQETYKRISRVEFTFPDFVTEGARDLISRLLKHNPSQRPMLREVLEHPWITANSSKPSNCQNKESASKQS
Method: as §1, with “Aurora A” for “PLK2”, “Invitrogen.” for “Invitrogen (cat #PV3802).”, “20” for “60”, “12” for “133”, “#PV3612).” for “#PV4204).”

Aurora B = molecular target: T5, Aurora B (Homo sapiens, UniProt Q96GD4); assay: Aurora B Inhibition Assay (Z-Lyte); details: for inhibition at 10 µM: 10 μM compound, read-out: Aurora B relative inhibition percentage at a dose of 10 μM; for IC50: 128 μM ATP, 28 nM Aurora B, read-out: Aurora B IC50 Ranges
T5 construct: purchased Invitrogen PV3970
T5 sequence (Q96GD4 whole entry): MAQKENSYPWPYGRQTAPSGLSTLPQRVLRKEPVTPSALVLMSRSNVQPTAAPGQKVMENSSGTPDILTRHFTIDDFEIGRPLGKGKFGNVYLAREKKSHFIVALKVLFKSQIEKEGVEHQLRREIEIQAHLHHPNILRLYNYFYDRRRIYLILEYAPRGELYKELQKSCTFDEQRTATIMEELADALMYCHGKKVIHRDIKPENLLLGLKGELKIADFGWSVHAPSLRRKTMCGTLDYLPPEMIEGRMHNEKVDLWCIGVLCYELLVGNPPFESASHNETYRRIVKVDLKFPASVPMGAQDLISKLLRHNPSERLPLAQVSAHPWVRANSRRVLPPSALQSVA
Method: as §1, with “Aurora B” for “PLK2”, “Invitrogen.” for “Invitrogen (cat #PV3802).”, “128” for “60”, “28” for “133”, “#PV3970).” for “#PV4204).”

| Compound | IC50 (human PLK4) [µM] | IC50 (PLK1) [µM] | inhibition at 10 µM (PLK2) [%] | inhibition at 10 µM (Aurora A) [%] | inhibition at 10 µM (Aurora B) [%] | inhibition at 10 µM (PLK1) [%] | IC50 (Aurora A) [µM] | IC50 (Aurora B) [µM] | IC50 (PLK2) [µM] |
| --- | --- | --- | --- | --- | --- | --- | --- | --- | --- |
| CC(=O)Nc1ccc2c(c1)NC(=O)/C2=C/c1ccc2cn[nH]c2c1 [Example A13, (E)-N-(3-((1H-indazol-6-yl)methylene)-2-oxoindolin-6-yl)acetamide] | < 5 | 5 to 50 | < 50 | > 50 | < 50 | – | – | – | – |
| O=C1Nc2ccccc2/C1=C\c1ccc2c(/C=C/c3cccnc3)n[nH]c2c1 [Example A113, (E)-3-((3-((E)-2-(pyridin-3-yl)vinyl)-1H-indazol-6-yl)methylene)-indolin-2-one] | < 5 | – | < 50 | – | – | < 50 | < 5 | < 5 | – |
| COC(=O)/C=C/c1n[nH]c2cc(/C=C3/C(=O)Nc4ccccc43)ccc12 [Example A61, (E)-methyl 3-(6-((E)-(2-oxoindolin-3-ylidene)methyl)-1H-indazol-3-yl)acrylate] | < 5 | – | < 50 | – | – | < 50 | < 5 | < 5 | – |
| O=C1Nc2ccc(Cl)cc2/C1=C\c1ccc2cn[nH]c2c1 [Example A80, (E)-3-((1H-indazol-6-yl)methylene)-5-chloroindolin-2-one] | < 5 | – | < 50 | – | – | < 50 | < 5 | < 5 | – |
| O=C1Nc2ccc(Cl)cc2C1=Cc1ccc2c(-c3cccnc3)n[nH]c2c1 (mixture of isomers) [Example A94, (E and Z)-5-chloro-3-((3-(pyridin-3-yl)-1H-indazol-6-yl)methylene)-indolin-2-one] | < 5 | – | < 50 | – | – | < 50 | > 50 | < 5 | – |
| O=C1Nc2ccc(C(=O)Nc3ccccc3)cc2/C1=C\c1ccc2cn[nH]c2c1 [Example A11, (E)-3-((1H-indazol-6-yl)methylene)-2-oxo-N-phenylindoline-5-carboxamide] | < 5 | > 50 | < 50 | > 50 | > 50 | – | – | – | – |
| CC(=O)Nc1cccc2c1NC(=O)/C2=C/c1ccc2c(/C=C/c3ccncc3)n[nH]c2c1 [Example A120, N-((E)-2-oxo-3-((3-((E)-2-(pyridin-4-yl)vinyl)-1H-indazol-6-yl)-methylene)indolin-7-yl)acetamide] | < 5 | – | < 50 | – | – | < 50 | < 5 | < 5 | – |
| O=C1Nc2ncc(Br)cc2C1=Cc1ccc2cn[nH]c2c1 (racemic) [Example A69, (E and Z)-3-((1H-indazol-6-yl)methylene)-5-bromo-1H-pyrrolo[2,3-b]pyridin-2(3H)-one] | < 5 | – | > 50 | > 50 | > 50 | > 50 | – | – | – |
| O=C1Nc2ccc(Br)cc2/C1=C\c1ccc2c(/C=C/c3ccncc3)n[nH]c2c1 [Example A62, (E)-5-bromo-3-((3-((E)-2-(pyridin-4-yl)vinyl)-1H-indazol-6-yl)-methylene)indolin-2-one] | < 5 | – | < 50 | – | – | < 50 | < 5 | < 5 | – |
| COc1ccc2c(c1)C(=Cc1ccc3c(/C=C/c4ccccn4)n[nH]c3c1)C(=O)N2 (mixture of isomers) [Example A87, (E and Z)-5-methoxy-3-((3-((E)-2-(pyridin-2-yl)vinyl)-1H-indazol-6-yl)methylene)indolin-2-one] | < 5 | – | < 50 | > 50 | – | < 50 | – | < 5 | – |
| Nc1cccc2c1NC(=O)/C2=C/c1ccc2cn[nH]c2c1 [Example A56, (E)-3-((1H-indazol-6-yl)methylene)-7-aminoindolin-2-one] | < 5 | > 50 | – | – | – | – | < 5 | < 5 | < 5 |
| COc1ccc2c(c1)/C(=C\c1ccc3c(/C=C/c4ccncc4Cl)n[nH]c3c1)C(=O)N2 [Example A119, (E)-3-((3-((E)-2-(3-chloropyridin-4-yl)vinyl)-1H-indazol-6-yl)methyl-ene)-5-methoxyindolin-2-one] | < 5 | – | < 50 | – | – | < 50 | < 5 | < 5 | – |
| Cc1ccc2c(c1)C(=Cc1ccc3cn[nH]c3c1)C(=O)N2 (mixture of isomers) [Example A81, (E and Z)-3-((1H-indazol-6-yl)methylene)-5-methylindolin-2-one] | < 5 | – | < 50 | – | – | < 50 | < 5 | < 5 | – |
| O=C1Nc2ncccc2C1=Cc1ccc2c(/C=C/c3cccnc3)n[nH]c2c1 (mixture of isomers) [Example A114, (E and Z)-3-((3-((E)-2-(pyridin-3-yl)vinyl)-1H-indazol-6-yl)methylene)-1H-pyrrolo[2,3-b]pyridin-2(3H)-one] | < 5 | – | < 50 | – | – | < 50 | < 5 | < 5 | – |
| O=C1Nc2c(cccc2C(F)(F)F)C1=Cc1ccc2cn[nH]c2c1 (mixture of isomers) [Example A47, (E and Z)-3-((1H-indazol-6-yl)methylene)-7-(trifluoromethyl)indolin-2-one] | > 50 | > 50 | – | – | – | – | > 50 | 5 to 50 | > 50 |
| O=C1Nc2ccccc2/C1=C\c1cc(-c2ccncc2)c2cn[nH]c2c1 [Example A54a, (E)-3-((4-(pyridin-4-yl)-1H-indazol-6-yl)methylene)indolin-2-one] | < 5 | > 50 | > 50 | > 50 | – | – | – | < 5 | – |
| O=C1Nc2ccccc2C1=Cc1ccc2c(-c3cncnc3)n[nH]c2c1 (mixture of isomers) [Example A100, (E and Z)-3-((3-(pyrimidin-5-yl)-1H-indazol-6-yl)methylene)-indolin-2-one] | < 5 | – | < 50 | > 50 | – | < 50 | – | < 5 | – |
| COc1ccc2c(c1)/C(=C\c1ccc3c(-c4ccc(N5CCOCC5)nc4)n[nH]c3c1)C(=O)N2 [Example A112, (E)-5-methoxy-3-((3-(6-morpholinopyridin-3-yl)-1H-indazol-6-yl)-methylene)indolin-2-one] | < 5 | – | < 50 | – | – | < 50 | < 5 | < 5 | – |
| COc1ccc2c(c1)C(=Cc1ccc3c(/C=C/C(=O)N4CCN(C)CC4)n[nH]c3c1)C(=O)N2 (mixture of isomers) [Example A118, (E and Z)-5-methoxy-3-((3-((E)-3-(4-methylpiperazin-1-yl)-3-oxoprop-1-enyl)-1H-indazol-6-yl)methylene)indolin-2-one] | < 5 | – | < 50 | – | – | < 50 | < 5 | < 5 | – |
